From patent US20080275123A1, “N-HALOGENATED AMINO ACID FORMULATIONS” (ALCON RESEARCH, LTD., priority 2007, published 2008)

Key:
C. albicans = assay: Antimicrobial activity by standard microbiological analysis (viability after exposure to test agent); assay type: cell-based; details: when 10 mM TBAH phase transfer agent is added
Protocol: The antimicrobial activity of certain formulations described herein was evaluated by a standard microbiological analysis. For the evaluation, bacterial and fungal isolates were grown overnight on appropriate agar media as source of fresh cells. A suspension of these fresh cells was prepared in saline at approximately 1×10^8 cfu/mL. These suspensions were added directly to the test agents (various solutions of sodium 2,2-dimethyl-N,N-dichlorotaurine and control solutions). The initial concentration of cells in the test agent solutions was approximately 1×10^6 cfu/mL. The exposure of microorganisms to the test agent was conducted at room temperature for up to 60 minutes. At selected times, an aliquot was withdrawn and diluted into phosphate buffered saline at 4° C. Viability was determined following serial dilution and filtration onto Milliflex cassettes.

[1] = Partitioning experiment, aqueous solution / dichloromethane; assay type: physicochemical; details: 4 mM compound, pH 4; for Log P: dichloromethane/aqueous; for 2,2-dimethyl-N,N-dichlorotaurine in aqueous After Partitioning % 2,2-dimethyl-N,N-dichlorotaurine: equal volume dichloromethane overnight
Protocol: Example 6 provides evidence of ion pairing taking place between a N-halogenated amino acid and a phase transfer agent, and the resulting changes in partitioning behavior. The partitioning experiment can be used to evaluate a compound's apparent lipophilicity and the potential improvement in antimicrobial activity when used on tissue.
Aqueous solutions were prepared containing 0.1% (4 mM) sodium 2,2-dimethyl-N,N-dichlorotaurine, tetrabutylammonium hydroxide (TBAH) at 0 mM, 1 mM, 4 mM, or 10 mM, 5 mM sodium acetate, sodium chloride to adjust osmolality to isotonic, and sodium hydroxide and/or hydrochloric acid to adjust pH to 4.
These aqueous solutions were assayed for 2,2-dimethyl-N,N-dichlorotaurine by reverse phase high pressure liquid chromatography. Each solution was then combined with an equal volume of dichloromethane, mixed on a rocker overnight, and the aqueous phase reassayed. The percent loss of 2,2-dimethyl-N,N-dichlorotaurine from the aqueous phase and theoretical percent of 2,2-dimethyl-N,N-dichlorotaurine partitioning to the dichloromethane were calculated and plotted versus the concentration of TBAH.
The theoretical percentage of 2,2-dimethyl-N,N-dichlorotaurine in dichloromethane phase is calculated as 100 percent minus the percent remaining in aqueous phase. FIG. 2 graphically illustrates the results of the above-described partitioning experiment. When 4 mM 2,2-dimethyl-N,N-dichlorotaurine in aqueous solution is combined with varying concentrations of TBAH, the quantity of 2,2-dimethyl-N,N-dichlorotaurine found in the aqueous solution decreases. Without added TBAH, almost all the 2,2-dimethyl-N,N-dichlorotaurine is found in the aqueous fraction. However, with 10 mM TBAH, most of the 2,2-dimethyl-N,N-dichlorotaurine has left the aqueous fraction and partitioned to the dichloromethane. This experiment is evidence of ion pair formation with TBAH phase transfer agent, which increases the apparent lipophilicity of the 2,2-dimethyl-N,N-dichlorotaurine.

## CC(C)(CS(=O)(=O)O)N(Cl)Cl [2,2-dimethyl-N,N-dichlorotaurine]
C. albicans
  antimicrobial activity (FIG. 1): dramatically increased
[1]; TBAH 0 mM
  2,2-dimethyl-N,N-dichlorotaurine in aqueous After Partitioning % in Aqueous: 96.1%
  2,2-dimethyl-N,N-dichlorotaurine in aqueous Before Partitioning % 2,2-dimethyl-N,N-dichlorotaurine: 0.1007%
  Calculated 2,2-dimethyl-N,N-dichlorotaurine % in CH2Cl2 After Partitioning Theory % in Dichloromethane: 3.9%
  Log P: −1.39
  2,2-dimethyl-N,N-dichlorotaurine in aqueous After Partitioning % 2,2-dimethyl-N,N-dichlorotaurine: 0.09675%
[1]; TBAH 1 mM
  2,2-dimethyl-N,N-dichlorotaurine in aqueous After Partitioning % in Aqueous: 76.1%
  2,2-dimethyl-N,N-dichlorotaurine in aqueous Before Partitioning % 2,2-dimethyl-N,N-dichlorotaurine: 0.1008%
  Calculated 2,2-dimethyl-N,N-dichlorotaurine % in CH2Cl2 After Partitioning Theory % in Dichloromethane: 23.9%
  Log P: −0.50
  2,2-dimethyl-N,N-dichlorotaurine in aqueous After Partitioning % 2,2-dimethyl-N,N-dichlorotaurine: 0.07672%
[1]; TBAH 4 mM
  2,2-dimethyl-N,N-dichlorotaurine in aqueous After Partitioning % in Aqueous: 35.4%
  2,2-dimethyl-N,N-dichlorotaurine in aqueous Before Partitioning % 2,2-dimethyl-N,N-dichlorotaurine: 0.1008%
  Calculated 2,2-dimethyl-N,N-dichlorotaurine % in CH2Cl2 After Partitioning Theory % in Dichloromethane: 64.6%
  Log P: 0.26
  2,2-dimethyl-N,N-dichlorotaurine in aqueous After Partitioning % 2,2-dimethyl-N,N-dichlorotaurine: 0.03573%
[1]; TBAH 10 mM
  2,2-dimethyl-N,N-dichlorotaurine in aqueous After Partitioning % in Aqueous: 11.9%
  2,2-dimethyl-N,N-dichlorotaurine in aqueous Before Partitioning % 2,2-dimethyl-N,N-dichlorotaurine: 0.1009%
  Calculated 2,2-dimethyl-N,N-dichlorotaurine % in CH2Cl2 After Partitioning Theory % in Dichloromethane: 88.1%
  Log P: 0.87
  2,2-dimethyl-N,N-dichlorotaurine in aqueous After Partitioning % 2,2-dimethyl-N,N-dichlorotaurine: 0.01198%
